# Experiments:
# [1] = test system: German cockroaches (Blattella germanica); experiment: Test Example 8: oil solution spray knock-down test on German cockroaches; format: in vivo; settings: adult German cockroaches, 1.5 ml of 0.00625% (w/v) oil solution sprayed, repeated once
# Procedure: Zero point zero zero six two five (0.00625) part of the compound of the present inventions (1), (2), (3), (4) and (5) was dissolved in 10 parts of isopropyl alcohol and the solution was mixed with 89.99375 parts of deodorized kerosene to prepare a 0.00625% (w/v) oil solution.
# Ten adult German cockroaches (Blattella germanica, 5 males and 5 females) were released in a test container (diameter 8.75 cm, 7.5 cm high, the bottom face is made of 16 mesh metallic wire), the inner face on which butter was applied, and the container was set at the bottom of a test chamber (bottom face: 46 cm×46 cm, height: 70 cm).
# Each 1.5 ml of the oil solution of the compound of the present invention (1), (2), (3), (4) and (5) was sprayed using a spray gun at a pressure of 0.4 kg/cm^2 from 60 cm higher than the upper face of the container. Thirty seconds after the spraying, the container was pulled out from the chamber. Two minutes after spraying, the number of knocked-down cockroaches was counted and a knock-down ratio was determined (repeated once). A knocked-down ratio was calculated by the following equation. Knocked-down ratio(%)=(Number of knocked-down cockroaches/Number of test cockroaches)×100 The results (2 minutes after spraying) are shown in Table 5.
# [2] = test system: American cockroaches (Periplaneta Americana); experiment: Test Example 1: oil solution spray knock-down test on American cockroaches; format: in vivo; settings: adult American cockroaches, 1.5 ml of 0.1% (w/v) oil solution sprayed, repeated twice
# Procedure: (§1) Zero point one (0.1) part of the compound of the present inventions (1), (2) and (4) was dissolved in 10 parts of isopropyl alcohol and the solution was mixed with 89.9 parts of deodorized kerosene to prepare a 0.1% (w/v) oil solution.
# (§2) Six adult American cockroaches (Periplaneta Americana, 3 males and 3 females) were released in a test container (diameter 12.5 cm, 10 cm high, the bottom face is made of 16 mesh metallic wire), the inner face on which butter was applied, and the container was set at the bottom of a test chamber (bottom face: 46 cm×46 cm, height: 70 cm). Each 1.5 ml of the oil solution of the compound of the present invention (1), (2) and (4) was sprayed using a spray gun at a pressure of 0.4 kg/cm^2 from 60 cm higher than the upper face of the container. Thirty seconds after the spraying, the container was pulled out from the chamber. After a prescribed time, the number of knocked-down cockroaches was counted and a knock-down ratio was determined (repeated twice). The knocked-down ratio was calculated by the following equation. Knocked-down ratio(%)=(Number of knocked-down cockroaches/Number of test cockroaches)×100
# For comparison, the test was conducted in the same manner as the above, except for using 2,5-dioxo-3-(2-propynyl)imidazolidinylmethyl=(1R)-cis-3-((Z)-2-cyano-2-methoxyethenyl)-2,2-dimethylcyclopropane carboxylate (compound described in JP-A-60-16962, hereinafter referred to as the comparative compound (1)) represented by the following formula: […]
# [3] = test system: houseflies (Musca domestica); experiment: Test Example 3: oil solution spray knock-down test on houseflies in glass chamber; format: in vivo; settings: adult Musca domestica, 0.7 ml of 0.025% (w/v) oil solution sprayed into 70 cm cubic glass chamber
# Procedure: Zero point zero two five (0.025) part of the compound of the present invention (1) and (4) was dissolved in 10 parts of isopropyl alcohol, and the solution was mixed with […] parts of deodorized kerosene to prepare a 0.025% (w/v) oil solution.
# Ten adult houseflies (Musca domestica) were released in a cubic glass chamber having each side of 70 cm, and 0.7 ml of the oil solution of the compound of the present invention (1) and (4) was sprayed into the chamber through a small window on the side of the chamber using a spraying gun at a pressure of 0.9 kg/cm^2. Five minutes after spraying, the number of knocked-down flies was counted and a knock-down ratio was determined. A knocked-down ratio was calculated by the following equation. Knocked-down ratio(%)=(Number of knocked-down flies/Number of test flies)×100
# [4] = test system: American cockroaches (Periplaneta Americana); experiment: Test Example 7: oil solution spray knock-down test on American cockroaches; format: in vivo; settings: adult American cockroaches, 1.5 ml of 0.1% (w/v) oil solution sprayed, repeated twice
# Procedure: as §1
# as §2, with “Three minutes after spraying,” for “After a prescribed time,”
# [5] = test system: common mosquitoes (Culex pipens pallens); experiment: Test Example 2: oil solution spray knock-down test on common mosquitoes in glass chamber; format: in vivo; settings: adult female Culex pipens pallens, 0.025% (w/v) oil solution sprayed into 70 cm cubic glass chamber, 1 minute after spraying
# Procedure: Zero point zero two five (0.025) part of the compound of the present invention (1) and (4) was dissolved in 10 parts of isopropyl alcohol, and the solution was mixed with 89.975 parts of deodorized kerosene to prepare a 0.025% (w/v) oil solution.
# Ten adult female common mosquitoes (Culex pipens pallens) were released in a cubic glass chamber having each side of 70 cm. The oil solution of the compound of the present invention (1) and (4) was sprayed into the chamber through a small window on the side of the chamber using a spraying gun at a pressure of 0.9 kg/cm^2. One minutes after spraying, the number of knocked-down mosquitoes was counted and a knock-down ratio was determined. A knocked-down ratio was calculated by the following equation. Knocked-down ratio(%)=(Number of knocked-down mosquitoes/Number of test mosquitoes)×100
Structure (SMILES),Knock-down ratio (%) 2 minutes after spraying [1] [%],Knock-down ratio (%) 2 minutes after spraying [2] [%],Knock-down ratio (%) 5 minutes after spraying [3] [%],Knock-down ratio (%) 3 minutes after spraying [4] [%],Knock-down ratio (%) 1 minutes after spraying [5] [%],melting point [°C]
"C#CCn1c(C)nn(COC(=O)[C@@H]2[C@@H](C=C(C#N)SCC)C2(C)C)c1=O (relative stereo) [compound of the present invention (5), 3-methyl-5-oxo-4-(2-propynyl)-4,5-dihydro-[1,2,4]triazolylmethyl=(1R)-trans-3-[(1EZ)-2-cyano-2-(ethylthio)ethenyl]-2,2-dimethylcyclopropane carboxylate]",90,,,,,
"C#CCN1CC(=O)N(COC(=O)[C@@H]2[C@H](/C=C(/C#N)OC)C2(C)C)C1=O [comparative compound (1), 2,5-dioxo-3-(2-propynyl)imidazolidinylmethyl=(1R)-cis-3-((Z)-2-cyano-2-methoxyethenyl)-2,2-dimethylcyclopropane carboxylate, reference compound]",,42,,,,
"C#CCn1c(C)nn(COC(=O)[C@@H]2[C@@H](C=C(C)C)C2(C)C)c1=O [comparative compound (2), 3-methyl-5-oxo-4-(2-propynyl)-4,5-dihydro-[1,2,4]triazolylmethyl=(1R)-trans-3-(2-methyl-1-propenyl)-2,2-dimethylcyclopropane carboxylate, reference compound]",,33,,,,
"C#CCn1c(C)nn(COC(=O)[C@@H]2[C@@H](C=C(C#N)SC)C2(C)C)c1=O [compound of the present invention (1), 3-methyl-5-oxo-4-(2-propynyl)-4,5-dihydro-[1,2,4]triazolylmethyl=(1R)-trans-3-[(1EZ)-2-cyano-2-(methylthio)ethenyl]-2,2-dimethylcyclopropane carboxylate]",100,100,80,100,95,
"C#CCn1c(C)nn(COC(=O)[C@@H]2[C@@H](/C=C(\C#N)SC)C2(C)C)c1=O [compound of the present invention (2), 3-methyl-5-oxo-4-(2-propynyl)-4,5-dihydro-[1,2,4]triazolylmethyl=(1R)-trans-3-[(1E)-2-cyano-2-(methylthio)ethenyl]-2,2-dimethylcyclopropane carboxylate]",100,92,,100,,104 to 105
"C#CCn1c(C)nn(COC(=O)[C@@H]2[C@@H](C=C(C#N)SCC)C2(C)C)c1=O [compound of the present invention (3), 3-methyl-5-oxo-4-(2-propynyl)-4,5-dihydro-[1,2,4]triazolylmethyl=(1R)-trans-3-[(1EZ)-2-cyano-2-(ethylthio)ethenyl]-2,2-dimethylcyclopropane carboxylate]",100,,,,,
"C#CCn1c(C)nn(COC(=O)[C@@H]2[C@@H](/C=C(\C#N)SCC)C2(C)C)c1=O [compound of the present invention (4), 3-methyl-5-oxo-4-(2-propynyl)-4,5-dihydro-[1,2,4]triazolylmethyl=(1R)-trans-3-[(1E)-2-cyano-2-(ethylthio)ethenyl]-2,2-dimethylcyclopropane carboxylate]",100,100,80,100,100,

# Reference: US8530669B2, “Ester compound and use thereof” (Sumitomo Chemical Company, Limited, priority 2010, dated 2013)
